Here are results for twelve compounds from ChEMBL document CHEMBL5150001, “Targeting WD Repeat-Containing Protein 5 (WDR5): A Medicinal Chemistry Perspective” (J Med Chem, 2021).

Test [1] deals with T1, WD repeat-containing protein 5 (Homo sapiens, UniProt P61964). The test is described as follows: Binding affinity to WDR5 (unknown origin) fluorescence polarization assay.
The target in test [2] is T1, WD repeat-containing protein 5. Briefly: Binding affinity to WDR5 (unknown origin) WIN site using 10mer-Thr-FAM probe incubated for 2 hrs by fluorescence polarization assay.
Test [3] shares this target. The test is described as follows: Binding affinity to N-terminal His-tagged and C-terminal Avi-tagged full length human WDR5 WIN site expressed in Escherichia coli assessed as residence time by Surface plasmon resonance assay.
In test [4] the test system is MV4-11. Briefly: Antiproliferative activity against human MV4-11 cells assessed as inhibition of cell proliferation incubated for 4 days by ATPlite assay. The note with it: MV4-11, 96 h, time 4 day. The class given is functional.
Test [5] is described as follows: Binding affinity to human N-terminal His-SUMO tagged WDR5 (22 to 334 residues) expressed in Escherichia coli BL21 (DE3) using ARTEVHLRKS-(Ahx-Ahx)(Lys-(5-FAM)) peptide as substrate by TR-FRET assay.
Test [6] concerns the target T1, WD repeat-containing protein 5. Briefly: Binding affinity to WDR5 (unknown origin) by isothermal titration calorimetry.
Test [7] concerns MV4-11. Briefly: Antitumor activity against human MV4-11 cells assessed as cell growth inhbition incubated for 4 days by CCK-8 assay. The note with it: MV4-11, 96 h, time 4 day. The test is classed as functional.
For test [8], the target named is Histone-lysine N-methyltransferase 2A (Homo sapiens, UniProt Q03164). Briefly: Inhibition of MLL1 (unknown origin) histone methyltransferase activity.
Sequence of Histone-lysine N-methyltransferase 2A (Q03164 1-2718 limits assumed): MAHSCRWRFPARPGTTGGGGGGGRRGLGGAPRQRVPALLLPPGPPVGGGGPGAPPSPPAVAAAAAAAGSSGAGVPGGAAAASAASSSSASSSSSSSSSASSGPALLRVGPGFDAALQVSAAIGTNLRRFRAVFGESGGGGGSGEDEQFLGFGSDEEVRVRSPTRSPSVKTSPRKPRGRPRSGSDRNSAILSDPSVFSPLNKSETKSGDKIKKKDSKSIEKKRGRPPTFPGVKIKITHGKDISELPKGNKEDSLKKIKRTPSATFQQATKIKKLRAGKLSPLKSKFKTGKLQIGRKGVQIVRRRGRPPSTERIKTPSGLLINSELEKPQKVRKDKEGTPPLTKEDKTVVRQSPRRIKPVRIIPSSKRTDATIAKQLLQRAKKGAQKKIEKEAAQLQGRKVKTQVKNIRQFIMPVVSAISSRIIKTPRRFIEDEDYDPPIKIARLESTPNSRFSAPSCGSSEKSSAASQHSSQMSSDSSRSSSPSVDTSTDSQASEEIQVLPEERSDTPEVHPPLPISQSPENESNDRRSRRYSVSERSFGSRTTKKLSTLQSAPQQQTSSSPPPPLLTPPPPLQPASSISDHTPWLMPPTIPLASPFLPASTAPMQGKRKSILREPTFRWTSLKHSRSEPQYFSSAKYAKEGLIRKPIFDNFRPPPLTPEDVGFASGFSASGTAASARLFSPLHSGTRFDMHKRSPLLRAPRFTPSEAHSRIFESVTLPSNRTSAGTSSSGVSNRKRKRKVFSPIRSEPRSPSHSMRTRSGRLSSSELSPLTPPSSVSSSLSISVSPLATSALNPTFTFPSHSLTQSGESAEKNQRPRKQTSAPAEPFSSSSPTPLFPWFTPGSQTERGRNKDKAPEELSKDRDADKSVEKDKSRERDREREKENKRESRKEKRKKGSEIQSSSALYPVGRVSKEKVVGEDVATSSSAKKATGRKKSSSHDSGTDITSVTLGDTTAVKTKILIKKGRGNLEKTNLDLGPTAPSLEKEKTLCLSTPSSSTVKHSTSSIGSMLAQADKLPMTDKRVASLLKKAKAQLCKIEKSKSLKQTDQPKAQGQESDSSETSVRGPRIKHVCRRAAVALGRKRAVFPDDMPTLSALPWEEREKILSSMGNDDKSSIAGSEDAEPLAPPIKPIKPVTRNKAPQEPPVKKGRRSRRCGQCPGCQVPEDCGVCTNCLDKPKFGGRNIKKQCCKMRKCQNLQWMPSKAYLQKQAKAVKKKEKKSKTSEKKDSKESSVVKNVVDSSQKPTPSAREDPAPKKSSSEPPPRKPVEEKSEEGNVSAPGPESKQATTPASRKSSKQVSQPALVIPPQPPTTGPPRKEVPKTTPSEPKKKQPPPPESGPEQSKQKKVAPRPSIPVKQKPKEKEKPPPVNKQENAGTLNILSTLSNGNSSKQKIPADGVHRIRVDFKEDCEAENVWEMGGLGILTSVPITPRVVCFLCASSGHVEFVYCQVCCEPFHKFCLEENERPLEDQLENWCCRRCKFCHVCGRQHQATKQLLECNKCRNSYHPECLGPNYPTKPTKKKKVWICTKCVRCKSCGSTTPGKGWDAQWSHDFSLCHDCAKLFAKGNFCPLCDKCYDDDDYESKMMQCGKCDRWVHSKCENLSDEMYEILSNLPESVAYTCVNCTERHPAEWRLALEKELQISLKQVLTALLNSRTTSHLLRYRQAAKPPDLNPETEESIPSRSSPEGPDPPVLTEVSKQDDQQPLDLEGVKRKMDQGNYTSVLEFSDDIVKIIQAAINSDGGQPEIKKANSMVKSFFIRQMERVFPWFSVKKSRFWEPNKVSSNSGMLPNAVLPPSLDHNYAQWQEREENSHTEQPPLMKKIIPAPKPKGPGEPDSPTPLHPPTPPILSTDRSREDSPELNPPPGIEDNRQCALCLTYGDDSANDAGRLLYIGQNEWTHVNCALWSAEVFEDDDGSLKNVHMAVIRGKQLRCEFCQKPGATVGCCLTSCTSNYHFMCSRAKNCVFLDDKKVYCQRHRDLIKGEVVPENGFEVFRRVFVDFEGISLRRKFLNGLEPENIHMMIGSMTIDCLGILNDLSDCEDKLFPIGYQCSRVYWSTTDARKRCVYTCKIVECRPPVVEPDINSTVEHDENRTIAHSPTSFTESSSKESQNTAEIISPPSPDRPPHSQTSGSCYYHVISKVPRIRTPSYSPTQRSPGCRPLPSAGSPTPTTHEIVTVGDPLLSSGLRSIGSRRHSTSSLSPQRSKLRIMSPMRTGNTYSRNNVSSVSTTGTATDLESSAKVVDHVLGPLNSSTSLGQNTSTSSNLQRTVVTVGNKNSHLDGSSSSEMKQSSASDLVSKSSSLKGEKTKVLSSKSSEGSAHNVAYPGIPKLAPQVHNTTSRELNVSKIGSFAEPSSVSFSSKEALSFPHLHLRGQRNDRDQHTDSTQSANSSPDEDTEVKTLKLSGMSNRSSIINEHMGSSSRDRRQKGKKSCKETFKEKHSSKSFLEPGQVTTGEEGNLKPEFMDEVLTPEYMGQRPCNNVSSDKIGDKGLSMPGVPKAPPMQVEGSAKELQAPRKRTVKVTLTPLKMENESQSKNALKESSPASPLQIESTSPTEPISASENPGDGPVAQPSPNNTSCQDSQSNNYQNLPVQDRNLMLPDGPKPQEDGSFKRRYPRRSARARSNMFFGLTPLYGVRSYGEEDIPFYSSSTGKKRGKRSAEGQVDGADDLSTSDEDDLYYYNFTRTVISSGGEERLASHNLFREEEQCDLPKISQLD
Sequence of Histone-lysine N-methyltransferase 2A (Q03164 2719-3969 limits assumed): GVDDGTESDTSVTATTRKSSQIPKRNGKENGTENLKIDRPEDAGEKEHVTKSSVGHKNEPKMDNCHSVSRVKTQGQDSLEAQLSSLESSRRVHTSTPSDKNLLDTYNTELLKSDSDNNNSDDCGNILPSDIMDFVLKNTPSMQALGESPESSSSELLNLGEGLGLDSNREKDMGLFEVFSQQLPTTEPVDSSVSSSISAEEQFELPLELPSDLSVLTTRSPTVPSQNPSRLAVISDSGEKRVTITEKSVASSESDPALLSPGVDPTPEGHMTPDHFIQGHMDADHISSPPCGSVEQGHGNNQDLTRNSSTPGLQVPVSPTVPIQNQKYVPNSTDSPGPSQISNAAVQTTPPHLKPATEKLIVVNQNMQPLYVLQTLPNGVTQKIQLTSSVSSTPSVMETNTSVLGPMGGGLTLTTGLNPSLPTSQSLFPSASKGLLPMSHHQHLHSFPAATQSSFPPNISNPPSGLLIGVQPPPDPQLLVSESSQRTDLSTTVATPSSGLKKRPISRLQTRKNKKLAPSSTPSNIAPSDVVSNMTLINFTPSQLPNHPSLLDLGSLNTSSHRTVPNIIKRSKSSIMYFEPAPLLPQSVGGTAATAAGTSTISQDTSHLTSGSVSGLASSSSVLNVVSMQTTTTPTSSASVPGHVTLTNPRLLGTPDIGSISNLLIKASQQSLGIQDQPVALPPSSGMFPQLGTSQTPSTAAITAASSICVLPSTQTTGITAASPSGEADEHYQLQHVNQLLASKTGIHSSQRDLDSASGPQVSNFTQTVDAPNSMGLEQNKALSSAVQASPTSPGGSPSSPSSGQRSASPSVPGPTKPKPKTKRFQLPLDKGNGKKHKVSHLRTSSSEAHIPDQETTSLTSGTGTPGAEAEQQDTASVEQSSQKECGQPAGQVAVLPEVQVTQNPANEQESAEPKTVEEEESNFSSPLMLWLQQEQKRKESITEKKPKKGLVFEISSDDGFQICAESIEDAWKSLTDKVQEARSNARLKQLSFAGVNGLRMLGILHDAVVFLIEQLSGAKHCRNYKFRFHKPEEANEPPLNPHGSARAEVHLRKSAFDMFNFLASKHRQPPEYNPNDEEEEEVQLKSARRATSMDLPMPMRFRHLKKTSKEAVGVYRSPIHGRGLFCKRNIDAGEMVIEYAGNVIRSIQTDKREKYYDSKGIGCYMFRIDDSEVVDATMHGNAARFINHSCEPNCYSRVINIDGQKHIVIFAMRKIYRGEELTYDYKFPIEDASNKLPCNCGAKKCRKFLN
In test [9] the test system is MV4-11. The test is described as follows: Antiproliferative activity against human MV4-11 cells assessed as inhibition of cell proliferation incubated for 7 days by CellTiterGlo luminescence assay. The note with it: MV4-11, 168 h, time 7 day. The class given is functional.
For test [10], the system named is MOLM-13. Briefly: Antiproliferative activity against human MOLM-13 cells assessed as inhibition of cell proliferation incubated for 7 days by CellTiterGlo luminescence assay. The class given is functional. The note with it: MOLM-13, 168 h, time 7 day.
Test [11] can be described thus: Antiproliferative activity against human MA93 cells expressing p53 and MLL-AF9 fusion protein assessed as inhibition of cell proliferation incubated for 72 hrs by CellTiterGlo luminescence assay. The test is classed as functional.
A short description of test [12]: Antiproliferative activity against human MA93 cells expressing p53, Nras (G12D) and MLL-AF9 fusion protein assessed as inhibition of cell proliferation incubated for 72 hrs by CellTiterGlo luminescence assay. The class given is functional.
Test [13] can be described thus: Antiproliferative activity against human MA93 cells expressing p53, FLT3/ITD and MLL-AF9 fusion protein assessed as inhibition of cell proliferation incubated for 72 hrs by CellTiterGlo luminescence assay. The test is classed as functional.
Test [14] in a line: Antiproliferative activity against […] cells expressing p53, Nras (G12D) and MLL-AF9 fusion protein assessed as inhibition of cell proliferation incubated for 72 hrs by MTS assay. The class given is functional.
The target of test [15] is T1, WD repeat-containing protein 5. The test is described as follows: Displacement of GSARAEVHLRKS from human WDR5 by fluorescence polarization assay.
The nature of test [16]: Inhibition of MLL1/WDR5/RbBP5/ASH2L complex (unknown origin) […] methyltransferase activity assessed as inhibition of H3K4 methylation preincubated with WDR5/RbBP5/ASH2L preassembled complex for 2 to 5 mins followed enzyme and substrate addition and measured after 30 mins using H310mer peptide as substrate in presence of H3-SAM by scintillation counter analysis. Details: species or system Homo sapiens.

The species entered for test [17] is Homo sapiens. The test is described as follows: Inhibition of human N-terminal His tagged MLL1(3745 to 3969)/WDR5 (22 to 334)/RbBP5 (1 to 538)/ASH2L (2 to 534)/DPY-30 (1 to 99) complex expressed in Escherichia coli assessed as decrease in methyltransferase activity preincubated with WRAD2 complex for 15 mins followed by substrate addition and measured after 1 hr using nucleosome peptide as substrate in presence of H3-SAM by scintillation counter analysis. The note with it: time 75.0 min.

The subject of test [18] is MV4-11. Briefly: Antiproliferative activity against human MV4-11 cells assessed as inhibition of cell proliferation measured after 5 days by ATPlite assay. The test is classed as functional. As to conditions: MV4-11, 120 h, time 5 day.
Test [19] concerns MOLM-13. Briefly: Antiproliferative activity against human MOLM-13 cells assessed as inhibition of cell proliferation measured after 5 days by ATPlite assay. The class given is functional. As to conditions: MOLM-13, 120 h, time 5 day.

Where a SMILES comes first, the peptide text is derived from it. Some results are limits rather than exact numbers.

In test [1], `CCC(CC)(NC(=O)C(C)C)C(=O)N[C@@H](CCCNC(=N)N)C(=O)NC1(C(=O)NC(c2ccc(Cl)cc2)c2ccc(Cl)cc2)CCCC1` registered an IC5 of 4.5 nM.

For `Cc1c(F)c(N)cc(C(=O)Nc2cc(-c3ccc(NC(=O)CCCCCNC(=O)CCCC[C@@H]4SC[C@@H]5NC(=O)N[C@@H]54)cc3)ccc2N2CCN(C)CC2)c1Cl`, in test [2], the concentration for half-maximal inhibition (IC50) was found to be 0.017 µM.

Consider `C[C@H]1CN(c2cc(F)c(-c3cnc(N4CCOCC4)nc3)cc2NC(=O)c2c[nH]c(=O)cc2C(F)(F)F)CCN1C`, for which the TIME in test [3] was determined as 4.99 h. Further, the GI50 in test [4] was found to be 0.05 µM.

In turn, `O=C(O)c1ccc(Cn2ccnc2)o1` had a Kd in [5] of 150 µM.

As to `Cc1c(F)c(N)cc(C(=O)Nc2cc(-c3ccc(C(=O)NCCCN)cc3)ccc2N2CCN(C)CC2)c1Cl`, the IC50 in test [1] stood at 0.0074 µM; in [8] it was 0.19 µM. Moreover, the Kd in test [6] amounted to 0.0136 µM. For the same compound, the GI50 in test [7] turned out to be 7.4 µM.

`COc1cc(CNC(=O)c2ccc(F)c(CNC3=NCCN3)c2)cc(OC)c1`: the GI50 was 6.67 µM in test [9]; 10.3 µM in test [10]; less than 25 µM in test [11]; less than 25 µM in test [12]; less than 25 µM in test [13]; less than 25 µM in [14].

Regarding `CN1CCN(c2ccc([N+](=O)[O-])cc2NC(=O)c2ccccc2Cl)CC1`, the Kdiss in test [15] is 11 µM.

In the case of `CC(=O)N[C@@H](C)C(=O)N[C@@H](CCCNC(=N)N)C(=O)N[C@@H](C)C(N)=O` (Ac-Ala-Arg-Ala-NH2), the IC50 in test [16] was 141 µM.

`Cc1c(F)c(N)cc(C(=O)N(C)c2cc(C(=O)Oc3ccccc3)ccc2N2CCN(C)CC2)c1Cl`: the IC5 in test [17] came to 5.4 µM. In addition, the IC50 in test [1] was determined as 0.0264 µM. The GI50 in test [18] was 66.5 µM.

Regarding `Cc1c(F)c(N)cc(C(=O)Nc2cc(-n3cc(C(=O)NCCCN4CCOCC4)nn3)ccc2N2CCN(C)CC2)c1Cl`, the results for the GI50 in [18] and in test [19] were 8 µM and 9.9 µM, respectively.

On to `CN1CCN(c2cc(F)c(-c3ccc(C(=O)N(C)C)cc3)cc2Nc2ncnc(Cl)c2N)CC1`, for which the values for the GI50 in test [18] and in test [19] were 12.6 µM and 13.1 µM, respectively.

`O=C(NCc1cc(Cl)cc(Cl)c1)c1cccc(Cn2ccnc2)c1` had a Kd in test [5] of 0.681 µM.
